Tests used:
[1] = molecular target: T1, human platelet 12-lipoxygenase (h12-LOX) (Homo sapiens, UniProt P18054); assay: steady-state Michaelis-Menten kinetics ([…] nm), kcat/KM at […] °C; LC-MS/MS products; assay type: biochemical
T1 construct: gene ALOX12; Nt-6His-tag recombinant enzyme expressed in Sf9
T1 sequence (P18054 1-663): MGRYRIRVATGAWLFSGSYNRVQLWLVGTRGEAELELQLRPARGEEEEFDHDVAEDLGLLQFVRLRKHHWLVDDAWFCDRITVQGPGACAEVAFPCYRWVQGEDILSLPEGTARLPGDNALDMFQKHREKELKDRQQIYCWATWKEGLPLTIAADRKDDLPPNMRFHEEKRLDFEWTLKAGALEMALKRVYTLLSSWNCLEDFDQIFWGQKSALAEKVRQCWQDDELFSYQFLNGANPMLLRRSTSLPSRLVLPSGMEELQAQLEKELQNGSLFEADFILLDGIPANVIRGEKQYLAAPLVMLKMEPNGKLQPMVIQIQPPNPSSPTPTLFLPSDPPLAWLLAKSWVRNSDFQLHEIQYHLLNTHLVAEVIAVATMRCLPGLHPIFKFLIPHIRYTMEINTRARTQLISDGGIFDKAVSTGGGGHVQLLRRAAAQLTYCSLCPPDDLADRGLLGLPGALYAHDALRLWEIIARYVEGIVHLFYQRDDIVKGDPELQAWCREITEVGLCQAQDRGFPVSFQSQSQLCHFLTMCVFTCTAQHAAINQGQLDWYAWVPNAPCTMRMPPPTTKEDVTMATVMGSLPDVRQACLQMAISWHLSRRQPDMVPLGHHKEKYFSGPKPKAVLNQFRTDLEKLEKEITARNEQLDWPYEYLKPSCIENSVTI

[2] = molecular target: T2, human platelet 12-lipoxygenase (h12-LOX) Y649C (Homo sapiens, UniProt P18054, Y649C); assay: as above; assay type: biochemical
T2 construct: gene ALOX12; Nt-6His-tag recombinant enzyme expressed in Sf9
T2 sequence (P18054 1-663 Y649C): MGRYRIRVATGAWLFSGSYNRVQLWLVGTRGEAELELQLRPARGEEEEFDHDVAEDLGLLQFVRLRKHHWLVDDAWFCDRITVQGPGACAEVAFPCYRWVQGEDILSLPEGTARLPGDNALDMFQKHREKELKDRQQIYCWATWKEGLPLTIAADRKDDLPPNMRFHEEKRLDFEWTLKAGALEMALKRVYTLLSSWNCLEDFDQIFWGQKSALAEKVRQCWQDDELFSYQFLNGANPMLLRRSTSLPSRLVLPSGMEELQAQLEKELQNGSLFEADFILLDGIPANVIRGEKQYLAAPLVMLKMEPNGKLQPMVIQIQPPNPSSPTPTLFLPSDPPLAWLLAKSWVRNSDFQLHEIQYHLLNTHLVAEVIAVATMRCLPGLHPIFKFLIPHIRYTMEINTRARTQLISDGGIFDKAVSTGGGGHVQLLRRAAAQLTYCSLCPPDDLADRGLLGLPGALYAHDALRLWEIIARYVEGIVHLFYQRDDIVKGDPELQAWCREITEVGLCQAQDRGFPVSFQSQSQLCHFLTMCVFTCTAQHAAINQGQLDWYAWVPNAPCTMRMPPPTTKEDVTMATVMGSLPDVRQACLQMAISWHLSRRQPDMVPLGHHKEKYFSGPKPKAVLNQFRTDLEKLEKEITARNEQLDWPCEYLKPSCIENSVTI

[3] = molecular target: T2, human platelet 12-lipoxygenase (h12-LOX) Y649C; assay: as above; assay type: biochemical; remark: listed apart in the source
[4] = molecular target: T1, human platelet 12-lipoxygenase (h12-LOX); assay: as above; assay type: biochemical; remark: listed apart in the source
[5] = molecular target: T3, wild-type human platelet 12S-lipoxygenase (human), P18054; assay: SEC; affinity-purified protein on Superdex 75 10/300 GL, 25 mM HEPES (pH 8), 0.3 mL/min; elution compared with gel filtration standards; conditions: remark: other sources report otherwise
T3 chain: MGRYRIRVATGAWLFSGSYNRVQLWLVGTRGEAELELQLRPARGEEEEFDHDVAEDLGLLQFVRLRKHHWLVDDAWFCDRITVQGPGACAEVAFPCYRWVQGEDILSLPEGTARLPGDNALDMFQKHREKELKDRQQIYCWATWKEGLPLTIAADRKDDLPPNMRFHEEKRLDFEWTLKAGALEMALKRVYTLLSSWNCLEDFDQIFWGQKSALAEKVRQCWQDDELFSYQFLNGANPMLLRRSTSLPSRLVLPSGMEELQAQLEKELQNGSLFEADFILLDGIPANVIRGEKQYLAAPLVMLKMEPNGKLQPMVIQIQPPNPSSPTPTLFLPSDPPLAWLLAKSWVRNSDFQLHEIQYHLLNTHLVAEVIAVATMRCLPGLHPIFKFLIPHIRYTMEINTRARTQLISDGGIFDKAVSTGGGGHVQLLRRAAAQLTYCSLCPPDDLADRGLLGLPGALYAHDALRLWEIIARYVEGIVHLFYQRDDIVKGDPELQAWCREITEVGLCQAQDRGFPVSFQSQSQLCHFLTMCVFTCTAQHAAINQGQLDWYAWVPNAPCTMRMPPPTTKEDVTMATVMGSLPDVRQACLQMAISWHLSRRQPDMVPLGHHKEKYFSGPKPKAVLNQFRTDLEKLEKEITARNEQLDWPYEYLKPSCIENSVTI

[6] = molecular target: the molecule itself; assay: as above

`CCCCC/C=C\C/C=C\C/C=C\C/C=C\CCCC(=O)O` [AA, arachidonic acid] was tested, and the “kcat/KM (μM^-1sec^-1) / WT” value [1] was 8.7 µM⁻¹ s⁻¹ and the “kcat/KM (μM^-1sec^-1) / Y649C” value [2] was 6 µM⁻¹ s⁻¹.

For `CC/C=C\C/C=C\C/C=C\C/C=C\C/C=C\C/C=C\CCC(=O)O` [DHA, docosahexaenoic acid], the “steady-state Michaelis-Menten kinetics (234 nm), kcat/KM at 22 °C; LC-MS/MS prod” value [3] was 960000 M⁻¹ s⁻¹ and the “steady-state Michaelis-Menten kinetics (234 nm), kcat/KM at 22 °C; LC-MS/MS prod” value [4] was 7.7e+06 M⁻¹ s⁻¹.

B1: wild-type human platelet 12S-lipoxygenase, P18054 1-663 (enzyme)
chain: MGRYRIRVATGAWLFSGSYNRVQLWLVGTRGEAELELQLRPARGEEEEFDHDVAEDLGLLQFVRLRKHHWLVDDAWFCDRITVQGPGACAEVAFPCYRWVQGEDILSLPEGTARLPGDNALDMFQKHREKELKDRQQIYCWATWKEGLPLTIAADRKDDLPPNMRFHEEKRLDFEWTLKAGALEMALKRVYTLLSSWNCLEDFDQIFWGQKSALAEKVRQCWQDDELFSYQFLNGANPMLLRRSTSLPSRLVLPSGMEELQAQLEKELQNGSLFEADFILLDGIPANVIRGEKQYLAAPLVMLKMEPNGKLQPMVIQIQPPNPSSPTPTLFLPSDPPLAWLLAKSWVRNSDFQLHEIQYHLLNTHLVAEVIAVATMRCLPGLHPIFKFLIPHIRYTMEINTRARTQLISDGGIFDKAVSTGGGGHVQLLRRAAAQLTYCSLCPPDDLADRGLLGLPGALYAHDALRLWEIIARYVEGIVHLFYQRDDIVKGDPELQAWCREITEVGLCQAQDRGFPVSFQSQSQLCHFLTMCVFTCTAQHAAINQGQLDWYAWVPNAPCTMRMPPPTTKEDVTMATVMGSLPDVRQACLQMAISWHLSRRQPDMVPLGHHKEKYFSGPKPKAVLNQFRTDLEKLEKEITARNEQLDWPYEYLKPSCIENSVTI
Work on B1 yielded a stoichiometry N [5] of 2.

B2: Y649C h12-LOX (enzyme, human, UniProt P18054 1-663, looked up)
chain: MGRYRIRVATGAWLFSGSYNRVQLWLVGTRGEAELELQLRPARGEEEEFDHDVAEDLGLLQFVRLRKHHWLVDDAWFCDRITVQGPGACAEVAFPCYRWVQGEDILSLPEGTARLPGDNALDMFQKHREKELKDRQQIYCWATWKEGLPLTIAADRKDDLPPNMRFHEEKRLDFEWTLKAGALEMALKRVYTLLSSWNCLEDFDQIFWGQKSALAEKVRQCWQDDELFSYQFLNGANPMLLRRSTSLPSRLVLPSGMEELQAQLEKELQNGSLFEADFILLDGIPANVIRGEKQYLAAPLVMLKMEPNGKLQPMVIQIQPPNPSSPTPTLFLPSDPPLAWLLAKSWVRNSDFQLHEIQYHLLNTHLVAEVIAVATMRCLPGLHPIFKFLIPHIRYTMEINTRARTQLISDGGIFDKAVSTGGGGHVQLLRRAAAQLTYCSLCPPDDLADRGLLGLPGALYAHDALRLWEIIARYVEGIVHLFYQRDDIVKGDPELQAWCREITEVGLCQAQDRGFPVSFQSQSQLCHFLTMCVFTCTAQHAAINQGQLDWYAWVPNAPCTMRMPPPTTKEDVTMATVMGSLPDVRQACLQMAISWHLSRRQPDMVPLGHHKEKYFSGPKPKAVLNQFRTDLEKLEKEITARNEQLDWPCEYLKPSCIENSVTI
notes: human platelet 12-lipoxygenase (h12-LOX), UniProt P18054, with the naturally occurring SNP Y649C made by site-directed mutagenesis; numbering as in UniProt P18054; Variant found in a family with a bleeding diathesis; metal content 20% by ICP-MS; also called Y649C SNP variant of h12-LOX
In the case of B2, the “stoichiometry N” value [6] is reported as 2.
